Data reported in ChEMBL document CHEMBL4616607, “3D proteome-wide scale screening and activity evaluation of a new ALKBH5 inhibitor in U87 glioblastoma cell line” (Bioorg Med Chem, 2020).
The source made the active and inactive calls. No cut-off for these calls is given here.

Tests used:
NCI-H460 [1] = assay: Antiinvasive activity against human H460 cells assessed as reduction in cell invasion measured after 24 hrs using Diff-quick staining by light microscopy based Boyden chamber assay; format: functional
A549 [2] = assay: Cytotoxicity against human A549 cells assessed as reduction in cell viability measured after 24 hrs by MTT assay; format: functional, cell-based
A549 [3] = assay: Cytotoxicity against human A549 cells assessed as reduction in cell viability after 24 hrs by SRB assay; format: functional, cell-based
NCI-H460 [4] = assay: Cytotoxicity against human H460 cells assessed as effect on cell viability at 1 to 50 uM measured after 24 hrs by MTT assay; format: functional, cell-based
NCI-H460 [5] = assay: Cytotoxicity against human H460 cells assessed as effect on cell viability at 1 to 50 uM measured after 24 hrs by SRB assay; format: functional, cell-based
U-87 MG [6] = assay: Cytotoxicity against human U87MG cells assessed as effect on cell viability at 1 to 50 uM measured after 24 hrs by MTT assay; format: functional, cell-based; details: U-87MG ATCC
U-87 MG [7] = assay: Cytotoxicity against human U87MG cells assessed as effect on cell viability at 1 to 50 uM measured after 24 hrs by SRB assay; format: functional, cell-based; details: U-87MG ATCC
U-87 MG [8] = assay: Antimigratory activity against human U87MG cells assessed as inhibition of cell migration measured after 6 hrs by scratch wound healing assay; format: functional, cell-based, U-87MG ATCC
NCI-H460 [9] = assay: Antimigratory activity against human H460 cells assessed as inhibition of cell migration measured after 24 hrs by scratch wound healing assay; format: functional, cell-based
A549 [10] = assay: Antimigratory activity against human A549 cells assessed as reduction in cell migration at 25 uM measured after 24 hrs by scratch wound healing assay; format: functional, cell-based
A549 [11] = assay: Antiinvasive activity against human A549 cells assessed as reduction in cell invasion measured after 24 hrs using Diff-quick staining by light microscopy based Boyden chamber assay; format: functional
U-87 MG [12] = assay: Antiinvasive activity against human U87MG cells assessed as reduction in cell invasion measured after 24 hrs using Diff-quick staining by light microscopy based Boyden chamber assay; format: functional, U-87MG ATCC
U-87 MG [13] = assay: Antiinvasive activity against human U87MG cells assessed as reduction in cell invasion at 25 to 50 uM measured after 24 hrs using Diff-quick staining by light microscopy based Boyden chamber assay relative to control; format: functional, U-87MG ATCC; design: scale not given: the % may be the effect or the level left
[14] = target: RNA demethylase ALKBH5 (Homo sapiens) (UniProt Q6P6C2); assay: Inhibition of human recombinant ALKBH5 demethylase activity assessed as increase in methylated 6A-RNA level incubated for 30 min by dot blot analysis
Sequence of RNA demethylase ALKBH5 (Homo sapiens) (Q6P6C2 2-394 limits assumed): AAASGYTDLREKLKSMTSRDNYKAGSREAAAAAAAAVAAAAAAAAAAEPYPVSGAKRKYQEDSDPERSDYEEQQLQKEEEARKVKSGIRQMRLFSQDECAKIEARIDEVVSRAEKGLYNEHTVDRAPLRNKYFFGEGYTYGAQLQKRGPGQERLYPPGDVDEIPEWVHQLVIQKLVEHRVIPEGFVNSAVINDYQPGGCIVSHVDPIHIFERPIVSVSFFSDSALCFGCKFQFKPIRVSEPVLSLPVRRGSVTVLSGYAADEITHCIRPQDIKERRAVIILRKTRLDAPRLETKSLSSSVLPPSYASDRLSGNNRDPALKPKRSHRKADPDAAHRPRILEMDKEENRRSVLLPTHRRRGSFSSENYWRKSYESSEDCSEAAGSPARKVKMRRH

[15] = target: RNA demethylase ALKBH5 (Homo sapiens) (UniProt Q6P6C2); assay: Inhibition of human recombinant ALKBH5 demethylase activity assessed as increase in methylated 6A-RNA level at 10 to 25 uM incubated for 30 min by dot blot analysis relative to control
[16] = target: RNA demethylase ALKBH5 (Homo sapiens) (UniProt Q6P6C2); assay: Inhibition of ALKBH5 demethylase activity in human U87MG cells assessed as decrease in CD73 expression measured after 1 to 24 hrs by Western blot analysis; format: cell-based; details: U-87MG ATCC
[17] = target: RNA demethylase ALKBH5 (Homo sapiens) (UniProt Q6P6C2); assay: Inhibition of ALKBH5 demethylase activity in human U87MG cells assessed as decrease in CD73 expression at 10 uM measured after 2 hrs by Western blot analysis; format: cell-based; details: U-87MG ATCC
[18] = target: RNA demethylase ALKBH5 (Homo sapiens) (UniProt Q6P6C2); assay: Inhibition of ALKBH5 demethylase activity in human U87MG cells assessed as decrease in CD73 expression at 10 uM measured after 1 hr by Western blot analysis; format: cell-based; details: U-87MG ATCC
U-87 MG [19] = assay: Effect on CD73 mRNA expression in human U87MG cells at 10 to 25 uM measured after 1 to 6 hrs by RT-PCR analysis; format: functional, cell-based; details: U-87MG ATCC

Question: Which Activity (NCI-H460 [1]) does the source give for NC1=N[C@H](O)[C@H]2[C@H]3O[C@]4(O)O[C@@H]([C@@H](O)[C@@]2(N1)[C@@H]4O)[C@]3(O)CO here?
Answer: Dose-dependent effect

Question: Which Activity (A549 [2]) does the source give for CCCc1c(C)nc2c3ccccc3oc(=S)n12 here?
Answer: Dose-dependent effect

Question: What about the Activity (A549 [3]) of the same molecule?
Answer: Dose-dependent effect

Question: What about the Activity (NCI-H460 [4]) of the same molecule?
Answer: inactive

Question: And the Activity (NCI-H460 [5])?
Answer: inactive

Question: And the Activity (U-87 MG [6])?
Answer: inactive

Question: And the Activity (U-87 MG [7])?
Answer: inactive

Question: And the IC50 (U-87 MG [8])?
Answer: 11 µM

Question: And the inhibition (U-87 MG [8]; U-87MG ATCC)?
Answer: Dose-dependent effect

Question: What about the inhibition (NCI-H460 [9]) of the same molecule?
Answer: Dose-dependent effect

Question: And the IC50 (NCI-H460 [9]; NCI-H460, 24 h)?
Answer: 10.1 µM

Question: And the Activity (A549 [10])?
Answer: inactive

Question: What about the Activity (A549 [11]) of the same molecule?
Answer: Dose-dependent effect

Question: And the IC50 (A549 [11]; A549, 24 h)?
Answer: 26.2 µM

Question: What about the Activity (NCI-H460 [1]) of the same molecule?
Answer: Dose-dependent effect

Question: What about the IC50 (NCI-H460 [1]; NCI-H460, 24 h) of the same molecule?
Answer: 17.8 µM

Question: And the IC50 (U-87 MG [12])?
Answer: 2480 nM

Question: What about the Activity (U-87 MG [12]; U-87MG ATCC) of the same molecule?
Answer: Dose-dependent effect

Question: What about the Activity (U-87 MG [13]) of the same molecule?
Answer: 90%

Question: What about the inhibition [14] of the same molecule?
Answer: Dose-dependent effect

Question: And the fold change (FC) [15]?
Answer: 3

Question: What about the inhibition [16] of the same molecule?
Answer: Dose-dependent effect

Question: What about the inhibition [17] of the same molecule?
Answer: Active

Question: And the inhibition [18]?
Answer: Active

Question: What about the Activity (U-87 MG [19]) of the same molecule?
Answer: inactive
